The source made the active and inactive calls.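 Rule for the calls: active = a drop in nitrite signal whose fitted half-maximal concentration is at most ten times the top tested dose; inconclusive = flat fit with 30 to 70% inhibition, or poor curve fit; inactive = the rest.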
Columns and labels:
[1] = test system: INS-1E cytokine-induced nitrite, Griess absorbance, 48 h; experiment: inhibitors of cytokine-induced nitrite release, dose response, cell-based, Griess absorbance, INS-1E, dry powder, set 3 (AID 488870)
[2] = as above; settings: INS-1E cytokine-induced nitrite, Griess absorbance, 48 h; at 19.5 µM (top of the series)

Structure (SMILES)	AC50 [1]	activity change, negative = inhibition [2]
C[C@@H]1CN([C@H](C)CO)C(=O)c2cccc(NC(=O)Nc3ccccc3)c2O[C@H]1CN(C)S(=O)(=O)c1ccc(F)cc1	> 19.5 µM (inactive)	
Cc1ccc(S(=O)(=O)N(C)C[C@H]2Oc3c(NC(=O)Nc4cccc5ccccc45)cccc3C(=O)N([C@@H](C)CO)C[C@@H]2C)cc1	> 19.5 µM (inactive)	
C[C@@H]1CN([C@@H](C)CO)C(=O)c2cccc(NC(=O)Nc3cccc4ccccc34)c2O[C@H]1CN(C)C(=O)Nc1ccccc1		-16.1% (inactive)

Source: PubChem BioAssay AID488870 (Broad Institute, 2010)
